From US20020129385A1, “MEDTHODS FOR IMPROVING LONG-TERM MEMORY STORAGE AND RETRIEVAL” (priority 1998, published 2002)

Experiments:
NMDA receptors = assay: NMDA-mediated synaptic potentials in hippocampal slices (DNQX, reduced Mg2+); type: cell-based, mouse; details: 50 (M DL-AP5); 10 (M DNQX, Mg2+ 50 μM)
Procedure: (§1) Transverse hippocampal slices were prepared as previously described (Abel et al., 1997). Mice of either sex, aged 7-18 weeks were used. Where appropriate, the experimenter was blind to animal genotype. […] For extracellular recordings, ACSF-filled glass electrodes (1-3 MW) were positioned in the stratum radiatum of area CA1. A bipolar nichrome stimulating electrode was also placed in stratum radiatum for stimulation of Schaffer collateral afferents (0.05 ms duration). Unless otherwise mentioned, test stimuli were applied at a frequency of 1 per minute (0.017 Hz), and at a stimulus intensity that elicits a fEPSP slope that was 35% of the maximum. Experiments in which changes in the fiber volley occurred, were discarded. Drugs were applied through the perfusion medium. DL-AP5, calyculin A, KT5720 and R(+)-6-Bromo-7,8-dihydroxy-3-allyl-1-phenyl-2,3,5-tetrahydro-1H-3-benzazepine (6-Br-APB) were purchased from Research Biochemicals International, Natick, Mass.

SC-CA1 synapse [1] = assay: Chemically-induced slow-onset potentiation (L-LTP), fEPSP recording in hippocampal slices; type: cell-based, mouse; design: dose or concentration left out as unconfirmed
Procedure: as §1

calcineurin [2] = assay: Phosphatase assay in hippocampal extracts of CN98 mice; type: biochemical, mouse; details: CN98 mutant and wild-type hippocampal extracts
Procedure: Phosphatase assays were performed according to Hubbard and Klee (1991). Briefly, mice were injected with 5 ml/kg of pentobarbital and decapitated. Hippocampi were homogenized in 2 mM EDTA (pH 8), 250 mM sucrose, 0.1% β-mercaptoethanol and centrifuged. Supernatants were diluted in 40 mM Tris-HCl (pH 8), 0.1 M NaCl, 0.4 mg/ml bovine serum albumin, 1 mM DTT, […] okadaic acid (Buffer 1) and incubated at 30° C. for 1 min in Buffer 1 containing […] of the peptide [γ^32p]-RII subunit of cyclic AMP-dependent protein kinase (PKA) and either 0.1 mM calmodulin (SIGMA®) and 0.66 mM Ca^2( or 0.33 mM EGTA (pH 7.5). The peptide [Ala^97]-RII (Peninsula Labs) was labeled with 0.3 mM [γ^32p] ATP (NEN®) using […] catalytic subunit of PKA (FLUKA®). The reaction was stopped with 5% TCA in 0.1 M KH2PO4 and the enzyme activity was calculated as previously described (Klee et al., 1983) and is expressed in nmol Pi released/min/mg protein. The protein concentration was determined using the bicinchroninic acid protein assay kit (SIGMA®). All samples were performed in triplicate.

calcineurin [3] = assay: Phosphatase assay in hippocampal extracts of Tet-CN279 and Tet-CN273 mice; type: biochemical, mouse
Procedure: Phosphatase assays were performed as described in Winder et al., 1998. Briefly, mice were injected with 5 ml/kg of pentobarbital and decapitated. Hippocampi were dissected out, homogenized in 2 mM EDTA (pH 8), 250 mM sucrose, 0.1% β-mercaptoethanol. Supernatants were incubated at 30° C. for 1 min in presence of the […] [[…]]-RII peptide and either 0.1 mM calmodulin and 0.66 mM Ca^2+ or 0.33 mM EGTA. The reaction was stopped and the enzyme activity calculated previously as described (Klee et al., 1983; 1987). The activity was expressed in nmol Pi released/min/mg protein. The protein concentration was determined using the bicinchroninic acid protein assay kit (SIGMA®). All samples were performed in triplicate.

calcineurin [4] = assay: Phosphatase assay in hippocampal extracts of rTet-CN279 mice; type: biochemical, mouse; details: extracts from control and mutant mice not treated or treated with doxycycline
Procedure: Phosphatase assays were performed as described in Winder et al., 1998. Briefly, hippocampal extracts from rTet-CN279 adult mice were prepared in 2 mM EDTA (pH 8), 250 mM sucrose, 0.1% b-mercaptoethanol. Supernatants were incubated at 30° C. for 1 min in the presence of […] [[…]]-RII peptide and either 0.1 mM calmodulin and 0.66 mM Ca^2( or 0.33 mM EGTA. The enzyme activity was expressed in nmol Pi released/min/mg protein.

SC-CA1 synapse [5] = assay: LTP induced by two 100 Hz trains in hippocampal slices in the presence of drugs; type: cell-based, mouse; design: Sensitivity of LTP elicited by two trains to preincubation with the drug: dose or concentration left out as unconfirmed
Procedure: as §1

SC-CA1 synapse [6] = assay: LTP induced by four 100 Hz trains in hippocampal slices in the presence of drugs; type: cell-based, mouse; details: wild-type slices; KT5720, 20 minute pretreatment; anisomycin 30 μM one hour
Procedure: as §1

[7] = test system: protein synthesis in area CA1; details: 30 μM; Stanton and Sarvey, 1984; Osten et al., 1996; cited from earlier work
SC-CA1 synapse [8] = assay: LTP induced by two trains in slices of Tet-CN279 mice on or off doxycycline (tTA system); type: cell-based, mouse
Procedure: as §1
The transgenic mice CN279 and CN273 were generated by microinjection of the linear construct as previously described (Hogan et al., 1994; Winder et al., 1998). Analysis of founder mice for integration of the transgene was performed by Southern blotting and PCR. The founder mice were backcrossed to C57BL6 F1/J mice to generate the transgenic lines CN279 and CN273. […]

[9] = test system: Schaffer collateral CA1 pathway; assay: LTP induced by two 100 Hz trains (I-LTP) in slices of rTet-CN279 mice treated with doxycycline (rtTA system); type: cell-based, mouse; details: ACSF 6 ng doxycycline/ml
Procedure: Recordings were performed as described in Winder et al., (1998). […] Test stimuli were applied at a frequency of 1 per min at an intensity that elicits an EPSP with a slope of […] of maximum. Slices from mice treated with doxycycline were incubated in ACSF containing doxycycline (6 ng/ml) for 2-3 hours before the tetanus was applied and subfused with doxycycline solution throughout the recordings.

With `NC(CCCP(=O)(O)O)C(=O)O` (racemic) [DL-AP5] the “NMDA-mediated field potentials in the presence of the drug” value (NMDA receptors) was “abolished”.
For `C=CCN1CCc2c(cc(O)c(O)c2Br)[C@@H](c2ccccc2)C1` [6-Br-APB, R(+)-6-Bromo-7,8-dihydroxy-3-allyl-1-phenyl-2,3,5-tetrahydro-1H-3-benzazepine], the “fEPSP slope, % of baseline at 3 hr after drug application” value (from here on “fEPSP slope, % of baseline at 3 hr”) (SC-CA1 synapse [1]; CN98 mutant slices) was 181±41 % of baseline and the “fEPSP slope, % of baseline at 3 hr” value (SC-CA1 synapse [1]; wild-type slices) was 204±40 % of baseline.
In the case of `O=C(O)CN(CCOCCOCCN(CC(=O)O)CC(=O)O)CC(=O)O` [EGTA], the “Phosphatase activity in the presence of the calcium chelator” value (calcineurin [2]) is reported as “virtually abolished”, the Phosphatase activity (calcineurin [3]; mutant (Tet-CN279+Tet-CN273)+EGTA) is reported as 0.287±0.17 nmol Pi/min/mg and the Phosphatase activity (calcineurin [3]; wild-type (Tet-CN279+Tet-CN273)+EGTA) is reported as 0.432±0.11 nmol Pi/min/mg. For the same compound, the “Phosphatase activity in the presence of the Ca2+ chelator” value (calcineurin [4]) was “blocked”.
For `CCCCCCOC(=O)[C@]1(O)C[C@@H]2O[C@@]1(C)n1c3ccccc3c3c4c(c5c6ccccc6n2c5c31)C(=O)NC4` [KT5720], the “LTP elicited by two trains, % of baseline at 1 hr” value (SC-CA1 synapse [5]; wild-type slices, KT5720, no drug 206±23%) was 153±5 % of baseline and the “Decay of LTP induced by four 100 Hz trains, compared with anisomycin” value (SC-CA1 synapse [6]) was “much more rapid decay of LTP”.
With `Nc1ncnc2c1ncn2[C@@H]1O[C@@H]2COP(O)(=S)O[C@H]2[C@H]1O` (stereo partly drawn) [Sp-cAMPS] the “fEPSP slope, % of baseline at 3 hr” value (SC-CA1 synapse [1]; CN98 mutant slices) was 122±17 % of baseline and the “fEPSP slope, % of baseline at 3 hr” value (SC-CA1 synapse [1]; wild-type slices) was 124±13 % of baseline.
In the case of `COc1ccc(C[C@H]2NC[C@H](O)[C@H]2OC(C)=O)cc1` [anisomycin], the “Sensitivity of LTP elicited by two trains to preincubation with the drug” value (SC-CA1 synapse [5]; wild-type slices, anisomycin (FIG. 4C)) is given as “completely insensitive” and the “Effect on protein synthesis in area CA1” value [7] is given as “completely block protein synthesis”.
For `COC[C@@H]([C@H](O)[C@H](O)C(=O)NCC[C@H](C)c1nc(/C=C/C[C@@H]2O[C@]3(C[C@@H](O)[C@@H]2C)O[C@H]([C@H](C[C@H](O)[C@H](C)[C@H](O)[C@H](C)/C=C(C)/C(C)=C/C=C/C(C)=C\C#N)OC)[C@H](OP(=O)(O)O)C3(C)C)co1)N(C)C` [calyculin A], the “LTP induced with two 100 Hz trains after drug pretreatment, mutant versus wild-type” value (SC-CA1 synapse [5]; Tet-CN279 mutant slices, 750 nM, 30 minutes pretreatment) was “indistinguishable from that seen in wild-type”.
With `C[C@H]1c2cccc(O)c2C(=O)C2=C(O)[C@]3(O)C(=O)C(C(N)=O)=C(O)[C@@H](N(C)C)[C@@H]3[C@@H](O)[C@@H]21` [doxycycline] the “LTP induced by two trains, % of baseline at 1 hr” value (SC-CA1 synapse [8]; Tet-CN279 Wt on doxycycline (1 mg/ml water, 1 ng/ml ACSF)) was 191±18 % of baseline, the “LTP induced by two trains, % of baseline at 1 hr” value (SC-CA1 synapse [8]; Tet-CN279 mutant on doxycycline (1 mg/ml water, 1 ng/ml ACSF)) was 184±18 % of baseline and the “LTP induced by two 100 Hz trains (I-LTP), % of baseline at 1 hour” value ([9]; rTet-CN279 Control dox) was 195±9 % of baseline. The “LTP induced by two 100 Hz trains (I-LTP), % of baseline at 1 hour” value ([9]; rTet-CN279 Mutant dox) was 141±8 % of baseline.
